According to paper PMC2364971, “A Spectroscopic Study on PtCl4^(2−) Binding to Rabbit Skeletal Muscle G-Actin” (Metal-Based Drugs, 1995):

Target: T1, G-actin (rabbit skeletal muscle) (Oryctolagus cuniculus, UniProt P68135)
T1 construct: gene ACTA1
Assay: fluorescence of NPM reacted with free Cys374 after PtCl4^[…]- incubation; Scatchard approach, least-square fit
Assay type: binding

## [Cl][Pt-2]([Cl])([Cl])[Cl] [PtCl4^2−]
  Kd: 0.1 µM
